From patent publication US12540164B2, “Peptides for treatment and prevention of nonalcoholic fatty liver disease and fibrosis” (UNIVERSITE DE STRASBOURG, priority 2017, dated 2026)
“Also recorded” adds a separate entry of the source. Ends that are not written are not given here.

Legend:
[1] = system: lysophosphatidylcholines (LPCs); experiment: Lysophosphatidylcholines (LPC) lipid content in pancreas, adipose tissue, liver and plasma; format: in vivo, mice; details: 25 μg per mouse subcutaneous
Text: (§1) For the lipid composition in the different tissues and plasma, all samples were flashed frozen at the time of sampling, immediately after sacrifice, and were sent to the lipidomic core facility of Dijon, (Plateforme de Lipidomique-uBorgogne INSERM UMR866/Labex LipSTIC).

[2] = system: Sterol regulatory element binding transcription factor 1 (Srebf1); experiment: Hepatic expression of Srebf1 (q-PCR); format: in vivo; details: 11 days post injection in the adipose tissue; DIO male mice; vs control
Text: (§2) AdipoRed Staining of Liver Sections

hepatic lipid droplets = experiment: AdipoRed staining of liver sections (lipid droplets); format: in vivo; details: 3 months after one unique injection in adipose tissue; DIO male mice; AdipoRed/DAPI cryosections
Experimental: Mice presented were euthanized and their plasma and organs were sampled for analysis. […] Cryosection of the livers were then stained with Adipored and DAPI to detect the level of lipid droplets. […] Hepatic function is assessed by two liver related strong biomarkers namely (AST (Aspartate Aminotransferase) and ALT (Alanine Aminotransferase)), whose levels increase proportionately with liver damage.
Livers were isolated and briefly washed in PBS buffer (pH 7.4). after weighing the dried liver, for the liver to body weight ratio, a sliced sample of the liver were then placed in 4% paraformaldehyde (in 0.1M sodium phosphate buffer, pH 7.2) for 15 min, washed in PBS and incubated in AdipoRed dye (1/25; Lonza, Switzerland) with 30 μM DAPI (Sigma-Aldrich, USA) for 15 minutes. After 3 washes with PBS samples were mounted on slides and pictures were taken using Zeiss microscope.

ceramides = experiment: Hepatic ceramides content and profile (lipidomics); format: in vivo, mice; details: 3 injections, one per week, in subcutaneous adipose tissue
Text: ADPIF adipose tissue injection has proven to be unexpectedly liver protective relative to a specific decrease in expression levels of FATP2 in the adipose tissue and an associated profile of the FATPs and FFARs in the muscles and liver. As these changes impact circulating population of the different lipids. Ceramides are a group of biological active lipids known to be involved in NAFLD. We measured and determined the effect of ADPIF injections on the ceramides profile following 3 injections of ADPIF at a frequency of one injection per week in the subcutaneous adipose tissue.
as §1

[3] = STAM model of non-alcoholic steatohepatitis: body weight, viability and general condition; format: in vivo; details: STAM NASH mice, any day during the treatment period
Experimental: NASH was induced in 12 male mice by a single subcutaneous injection of 200 μg streptozotocin (STZ, Sigma-Aldrich, USA) solution 2 days after birth and feeding with high fat diet (HFD, 57 kcal % fat, Cat #HFD32, CLEA Japan, Inc., Japan) after 4 weeks of age.
The peptide was administered at a dose of 25 microgram (μg) per mouse once weekly.
Six NASH mice were subcutaneously in the adipose tissue administered vehicle supplemented with ADPIF peptide at a dose of […] per mouse once weekly from 4 to 9 weeks of age.
The viability, clinical signs and behavior were monitored daily. Body weight was recorded before the treatment. […] The animals were sacrificed at 9 weeks of age by exsanguination through direct cardiac puncture under isoflurane anesthesia (Pfizer Inc.).

ALT = experiment: STAM model of non-alcoholic steatohepatitis: plasma biochemistry (ALT); format: in vivo; details: STAM NASH mice, 25 μg per mouse SC once weekly 4-9 wks of age, sacrifice 9 wks; n = 6
Experimental: NASH was induced in 12 male mice by a single subcutaneous injection of 200 μg streptozotocin (STZ, Sigma-Aldrich, USA) solution 2 days after birth and feeding with high fat diet (HFD, 57 kcal % fat, Cat #HFD32, CLEA Japan, Inc., Japan) after 4 weeks of age. The peptide was administered subcutaneously in the adipose tissue in a volume of […] per mouse. The peptide was administered at a dose of 25 microgram (μg) per mouse once weekly. For plasma biochemistry, non-fasting blood was collected in polypropylene tubes with anticoagulant (Novo-Heparin, Mochida Pharmaceutical Co. Ltd., Japan) and centrifuged at 1,000×g for 15 minutes at 4° C. The supernatant was collected and stored at −80° C. until use. Plasma ALT level was measured by FUJI DRI-CHEM 7000 (Fujifilm, Japan). Six NASH mice were subcutaneously in the adipose tissue administered vehicle supplemented with ADPIF peptide at a dose of […] per mouse once weekly from 4 to 9 weeks of age.

[4] = system: fatty acid synthase (Fasn); experiment: Hepatic expression of de novo lipogenesis gene Fasn (q-PCR); format: in vivo; details: 11 days post injection in the adipose tissue; DIO male mice; vs control
Text: as §2

[5] = Glucose tolerance test (GTT) in diet induced obese mice; format: in vivo; details: fasting male DIO mice, single injection at day 0; subcutaneous glucose bolus; AUC D-5 vs D+6
Experimental: These are results obtained from series of glucose tolerance test (GTT) and data from two-time points namely 30 minutes and 120 minutes were used to generate these curves for both control and PATAD treated diet induced obese (DIO) and diabetic wild type male C57/B6 mice (control).
For this study, mice were on a C57/BL6 genetic background. All animals were housed in a temperature and humidity controlled facility, with a 12 h-light/12 h-dark cycle fed during the whole phase mice will be fed with a 60% high fat diet from Research Diets (D12492), and tap water will be provided ad libitum. Mice were fed and tested regularly for glucose tolerance test for their glucose tolerance and once they were glucose intolerant they were used for treatment.

Collagen IV = experiment: Immunostaining of kidney cryosections for Collagen IV; format: in vivo; details: DIO(-NASH) mice 3 months post treatment; vs vehicle
Text: Cryosections of kidneys from DIO vehicle treated and DIO ADPIF treated mice 3 months post treatment, were immunostained for collage IV deposition and tight junction with a ZO-1 antibody to assess the effect of ADPIF peptide on fibrosis progression in other soft tissues. For immunofluorescence experiments, liver and kidneys freshly sampled were included in Optimal Cutting Temperature Compound™ (OCT™, Catalog #4583, Tissue-Tek® OCT™, Sakura® Finetek, Torrance, California, USA) and cryosections of 7 μm were cut with Cryostat Leica CM1950. Cryosections were washed with 1×PBS and fixated in 4% formaldehyde solution for 15 min (Catalog #: F555-4L, Sigma-Aldrich, Saint-Louis, Missouri, USA) and then permeabilized with 0.02% SDS-PBS for 30 seconds. Blocking solution was 5%-Bovine Serum Albumin (BSA) in PBS. Primary antibodies were diluted in blocking solution and incubated overnight and indicated secondary antibodies were diluted in PBS for 30 minutes. Nuclei were counterstained with Hoechst (Catalog #: D1306, Invitrogen, Carlsbad, California, USA). Slides were then mounted with Vectashield® Mounting Medium (Catalog #: H-1000, Vector Laboratories, Burlingame, California, USA). Images were acquired and analyzed with Zeiss Imager.Z2 microscope equipped with either Zeiss AxioVision or Zeiss ZEN 2012 software (Carl Zeiss Inc., Oberkochen, Germany). […]

LOXL2 = experiment: Circulating (plasma) LOXL2 ELISA; format: in vivo; details: 3 months post a unique injection; DIO-NASH mice
Text: For LOXL2 and GLP-1 measurements, the two commercially available kits: Lysyl Oxydase Like Protein 2 (LOXL2), Enzyme-linked Immunosorbent Assay Kit, Mus musculus, SEF552Mu, Cloud Clone Corp;

## VECTTREKEVLASLDKAAFLTQLHS (not fully specified (bridges)) [ADPIF, R and S carry the stapling, preferably 2-(7-octenyl)arginine and 2-(4-pentenyl)serine]
[1]; adipose tissue and liver
  level of LPC 18:2: most prominent reduction; also recorded: mostly reduced
[1]; adipose tissue, liver, plasma, euthanized 1 week after last injection
  levels of lysophosphatidylcholines (LPCs) in the tissues analyzed: effective in reducing selective LPCS; also recorded: selective decrease of certain LPCs
[2]
  hepatic expression level of Srebf1: repressed; also recorded: significantly decreased
Hepatic lipid droplets
  size of the hepatic lipid droplets: clearly showed a decrease; also recorded: global decrease in the sizes of the lipid droplets; also recorded: decrease in the diameter of the lipid droplets
ceramides
  hepatic ceramides content: globally induces a decrease
[3]
  mean body weight compared with the Vehicle group: no significant differences
ALT
  Plasma ALT (mean ± SD): 54 ± 9 U/L
[4]
  hepatic expression level of fatty acid synthase (Fasn): repressed; also recorded: significantly decreased
[5]
  glucose tolerance test / prevention of hyperglycemia: better effect in glucose tolerance test than the PATAD peptide; also recorded: more active than PATAD peptide in preventing hyperglycemia
Collagen IV
  Collagen IV depots in the kidney (immunostaining): clear reduction; also recorded: More depots of Collagen IV are observed in the DIO-NASH vehicle than in the ADPIF treated
LOXL2
  circulation (plasma) levels of LOXL2: significantly reduced; also recorded: reduced the LOXL2 levels by half
